Key:
Format in all cases: biochemical
Human Tyk2 kinase domain = biological target: T1, Human Tyk2 kinase domain (Homo sapiens, UniProt P29597); experiment: Tyk2 Inhibition Assay (Omnia kinase fluorescence peptide substrate); conditions: averaged IC50 ranges; 10 μM (Km app) or 1 mM ATP, 2 nM Tyk2
T1 construct: comprising amino acids 886 to 1187; His10 (10 histidine residues) (C, cleaved yes); made in house
T1 sequence (P29597 886-1187): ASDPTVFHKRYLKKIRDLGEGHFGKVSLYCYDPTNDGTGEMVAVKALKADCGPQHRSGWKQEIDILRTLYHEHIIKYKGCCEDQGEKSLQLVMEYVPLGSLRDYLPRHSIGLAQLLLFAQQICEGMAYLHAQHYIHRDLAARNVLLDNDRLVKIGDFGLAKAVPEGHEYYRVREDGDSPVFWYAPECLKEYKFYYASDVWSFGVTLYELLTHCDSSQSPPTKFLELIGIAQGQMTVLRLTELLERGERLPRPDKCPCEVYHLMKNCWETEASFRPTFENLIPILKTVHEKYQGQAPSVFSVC
Method in brief: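 Phosphorylation of 8 μM Omnia Y12 peptide followed kinetically by Sox fluorescence, ex 360/em 485 nm, every 50 s for 45 min. Enzyme: 2 nM Tyk2 kinase domain (aa 886–1187, His tag removed); ATP at 10 μM (Km app) or 1 mM; buffer HEPES pH 7.4 with MgCl2, Triton X-100, DTT. 10-point curves up to 10 μM, IC50 from 4-parameter logistic fit.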

JAK1 = biological target: T2, JAK1 (Homo sapiens, UniProt P23458); experiment: JAK1 Inhibition Assay (Omnia kinase fluorescence peptide substrate); conditions: averaged IC50 ranges; 40 μM (Km app) or 1 mM ATP, 15 nM JAK1
T2 construct: purchased Invitrogen Corporation, Carlsbad, Calif; IVGN PV4775
Method in brief: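 15 nM JAK1, 8 μM Omnia Y12 peptide, 40 μM (Km app) or 1 mM ATP; 25 mM HEPES pH 7.4, 10 mM MgCl2, 2% DMSO. Fluorescence (ex 360/em 485 nm) read every 50 s over 45 min. IC50 by 4-parameter fit of percent of control, top dose 10 μM.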

JAK2 = biological target: T3, JAK2 (Homo sapiens, UniProt O60674); experiment: JAK2 Inhibition Assay (Omnia kinase fluorescence peptide substrate); conditions: averaged IC50 ranges; 25 μM (Km app) or 1 mM ATP, 5 nM JAK2
T3 construct: purchased Invitrogen Corporation, Carlsbad, Calif; IVGN PV4288

JAK3 = biological target: T4, JAK3 (Homo sapiens, UniProt P52333); experiment: JAK3 Inhibition Assay (Omnia kinase fluorescence peptide substrate); conditions: averaged IC50 ranges; 10 μM (Km app) or 1 mM ATP, 2.5 nM JAK3
T4 construct: purchased Invitrogen Corporation, Carlsbad, Calif; IVGN PV4080
T4 sequence (P52333 1-1124): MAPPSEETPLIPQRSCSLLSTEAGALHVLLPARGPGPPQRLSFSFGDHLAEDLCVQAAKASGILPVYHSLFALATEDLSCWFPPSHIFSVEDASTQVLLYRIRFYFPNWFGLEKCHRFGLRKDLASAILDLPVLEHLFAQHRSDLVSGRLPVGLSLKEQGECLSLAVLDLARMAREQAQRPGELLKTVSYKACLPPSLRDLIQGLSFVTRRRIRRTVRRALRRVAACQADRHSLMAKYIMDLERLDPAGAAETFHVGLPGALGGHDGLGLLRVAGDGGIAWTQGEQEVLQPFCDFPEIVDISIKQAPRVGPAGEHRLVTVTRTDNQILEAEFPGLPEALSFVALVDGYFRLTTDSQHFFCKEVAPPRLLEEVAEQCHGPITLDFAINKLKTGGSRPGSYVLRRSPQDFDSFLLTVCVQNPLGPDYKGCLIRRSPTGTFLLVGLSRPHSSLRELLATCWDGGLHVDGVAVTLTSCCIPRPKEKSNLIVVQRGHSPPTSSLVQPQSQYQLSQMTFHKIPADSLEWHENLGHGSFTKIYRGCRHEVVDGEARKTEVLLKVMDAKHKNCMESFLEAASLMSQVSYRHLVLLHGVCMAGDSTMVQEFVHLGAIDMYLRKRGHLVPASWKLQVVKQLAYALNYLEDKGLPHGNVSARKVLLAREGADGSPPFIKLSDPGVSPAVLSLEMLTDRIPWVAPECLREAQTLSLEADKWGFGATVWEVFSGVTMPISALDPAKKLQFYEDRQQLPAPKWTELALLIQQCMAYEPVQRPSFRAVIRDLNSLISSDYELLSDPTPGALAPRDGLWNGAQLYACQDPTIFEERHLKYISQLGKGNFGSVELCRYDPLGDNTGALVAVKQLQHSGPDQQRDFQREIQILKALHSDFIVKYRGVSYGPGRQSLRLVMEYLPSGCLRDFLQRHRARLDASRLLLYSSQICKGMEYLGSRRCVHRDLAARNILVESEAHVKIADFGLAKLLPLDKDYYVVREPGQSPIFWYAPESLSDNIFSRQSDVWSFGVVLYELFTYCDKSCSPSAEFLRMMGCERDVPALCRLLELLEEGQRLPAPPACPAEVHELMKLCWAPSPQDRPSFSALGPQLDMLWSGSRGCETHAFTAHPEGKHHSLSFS
Method in brief: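 IC50 is the concentration giving 50 percent of control on a 4-parameter logistic fit of 10-point, 3-fold dilutions from a 10 μM top dose, at 2% final DMSO. Kinetic Sox fluorescence (360/485 nm) was monitored every 50 s for 45 min. Mix: JAK3 2.5 nM, Omnia Y7 peptide 10 μM, ATP 10 μM (Km app) or 1 mM, in HEPES pH 7.4 buffer with MgCl2, Triton X-100 and DTT.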

[1] = tested on: Tyk2, JAK1, JAK2 and JAK3; experiment: in vitro assays (Examples A, B, C and D) taken together; conditions: Reference Examples; statement in words
From the text: The assays described in Examples A, B, C and D for the determination of Tyk2, JAK1, JAK2 and JAK3 kinase activity, respectively, utilized the Omnia® Kinase fluorescence peptide substrate-based technology (Invitrogen). The specific components of the assay mixture are described in Examples A, B, C and D. In these assays, Mg^2+ is chelated upon phosphorylation of the Omnia peptide by the kinase to form a bridge between the chelation-enhanced fluorophore Sox and the phosphate, resulting in an increase in fluorescence emission at 485 nm when excited at […]. The reactions were therefore read at excitation 360 nm and emission was measured at 485 nm every 50 seconds for 45 minutes using a PerkinElmer EnVision Multilabel Plate Reader.
The final buffer conditions for Tyk2, JAK1, JAK2, and JAK3 assays were as follows: 25 mM HEPES, pH 7.4, 10 mM MgCl2, 0.01% Triton X-100 and 1 mM DTT.
Compounds were prepared at 50× the final concentration in DMSO by conducting 3-fold serial dilutions from a 500-μM intermediate dilution to give a 10-point dosing curve having a high dose of 10 μM. Two-μL aliquots of these were transferred to a fresh plate for a ten-fold intermediate dilution with assay buffer. Five-μL aliquots of the diluted compounds were then transferred to 20-μL of assay mixtures described in Examples A, B, C and D for a final concentration of DMSO of 2%. A standard or reference compound was typically included on each assay plate to validate that plate. For each plate, percent of control (POC) values were calculated for each well according to the following equation: […]
Compounds of Formula I were screened for their ability to inhibit Tyk2 using the general enzyme inhibition assay method, in which the assay mixture contained 10 μM (Km app) or 1 mM ATP, 8 μM Omnia® Y12 peptide (Catalog #IVGN KPZ3121C; Invitrogen Corporation, Carlsbad, Calif.) and 2 nM Tyk2 in a total volume of 20 μL. Human Tyk2 kinase domain, comprising amino acids 886 to 1187 with 10 additional histidine residues (histidine tag) on the carboxy terminus, was expressed and purified from bacculovirus in-house at Array BioPharma Inc. (Boulder, Colo.). The histidine tag was cleaved after purification using standard conditions.
Compounds of Formula I were screened for their ability to inhibit JAK1 using the general enzyme inhibition assay method, in which the assay mixture contained 40 μM (Km app) or 1 mM ATP, 8 μM Omnia® Y12 peptide (Catalog #IVGN KPZ3121C; Invitrogen Corporation, Carlsbad, Calif.) and 15 nM JAK1 in a total volume of 20 μL. JAK1 was purchased from Invitrogen Corporation, Carlsbad, Calif. (catalog #IVGN PV4775).
(§1) Compounds of Formula I were screened for their ability to inhibit JAK2 using the general enzyme inhibition assay method, in which the assay mixture contained 25 μM (Km app) or 1 mM ATP, 10 μM Omnia® Y7 peptide (Catalog #IVGN KNZ3071C, Invitrogen Corporation, Carlsbad, Calif.) and 5 nM JAK2 in a total volume of 20 μL. JAK2 was purchased from Invitrogen Corporation, Carlsbad, Calif. (catalog #IVGN PV4288).
as §1, with “JAK3” for “JAK2”, “10” for “25”, “2.5” for “5”, “PV4080).” for “PV4288).”

T2 sequence (P23458 whole entry): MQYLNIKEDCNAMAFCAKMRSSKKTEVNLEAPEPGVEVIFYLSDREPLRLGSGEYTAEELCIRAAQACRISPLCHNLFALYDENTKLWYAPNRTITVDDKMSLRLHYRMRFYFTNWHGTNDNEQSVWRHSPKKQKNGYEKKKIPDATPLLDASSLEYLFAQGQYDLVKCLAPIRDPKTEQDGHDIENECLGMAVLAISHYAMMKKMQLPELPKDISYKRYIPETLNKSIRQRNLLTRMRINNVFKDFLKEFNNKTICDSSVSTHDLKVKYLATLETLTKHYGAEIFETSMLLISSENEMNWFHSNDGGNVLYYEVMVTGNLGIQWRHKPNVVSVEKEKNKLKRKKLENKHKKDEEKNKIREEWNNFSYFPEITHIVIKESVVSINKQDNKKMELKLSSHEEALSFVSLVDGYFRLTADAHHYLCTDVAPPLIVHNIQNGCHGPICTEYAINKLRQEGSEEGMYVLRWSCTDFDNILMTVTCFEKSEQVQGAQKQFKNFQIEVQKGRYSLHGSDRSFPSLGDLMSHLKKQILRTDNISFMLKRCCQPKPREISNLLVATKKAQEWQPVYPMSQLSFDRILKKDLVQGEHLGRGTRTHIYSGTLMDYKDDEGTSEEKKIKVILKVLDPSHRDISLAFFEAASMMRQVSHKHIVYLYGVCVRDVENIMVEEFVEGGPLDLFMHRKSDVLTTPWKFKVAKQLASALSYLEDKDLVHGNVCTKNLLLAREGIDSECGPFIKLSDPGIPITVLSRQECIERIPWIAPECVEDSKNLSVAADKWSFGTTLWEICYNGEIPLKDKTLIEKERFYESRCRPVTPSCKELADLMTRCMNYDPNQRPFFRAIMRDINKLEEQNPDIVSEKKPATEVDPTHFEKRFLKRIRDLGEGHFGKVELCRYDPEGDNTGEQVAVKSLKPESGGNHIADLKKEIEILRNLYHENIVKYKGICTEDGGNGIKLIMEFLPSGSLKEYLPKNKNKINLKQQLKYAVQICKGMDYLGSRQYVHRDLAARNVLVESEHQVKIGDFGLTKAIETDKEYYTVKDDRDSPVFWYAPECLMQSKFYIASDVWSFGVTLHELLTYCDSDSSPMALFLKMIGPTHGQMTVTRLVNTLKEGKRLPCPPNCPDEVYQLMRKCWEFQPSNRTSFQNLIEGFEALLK
T3 sequence (O60674 whole entry): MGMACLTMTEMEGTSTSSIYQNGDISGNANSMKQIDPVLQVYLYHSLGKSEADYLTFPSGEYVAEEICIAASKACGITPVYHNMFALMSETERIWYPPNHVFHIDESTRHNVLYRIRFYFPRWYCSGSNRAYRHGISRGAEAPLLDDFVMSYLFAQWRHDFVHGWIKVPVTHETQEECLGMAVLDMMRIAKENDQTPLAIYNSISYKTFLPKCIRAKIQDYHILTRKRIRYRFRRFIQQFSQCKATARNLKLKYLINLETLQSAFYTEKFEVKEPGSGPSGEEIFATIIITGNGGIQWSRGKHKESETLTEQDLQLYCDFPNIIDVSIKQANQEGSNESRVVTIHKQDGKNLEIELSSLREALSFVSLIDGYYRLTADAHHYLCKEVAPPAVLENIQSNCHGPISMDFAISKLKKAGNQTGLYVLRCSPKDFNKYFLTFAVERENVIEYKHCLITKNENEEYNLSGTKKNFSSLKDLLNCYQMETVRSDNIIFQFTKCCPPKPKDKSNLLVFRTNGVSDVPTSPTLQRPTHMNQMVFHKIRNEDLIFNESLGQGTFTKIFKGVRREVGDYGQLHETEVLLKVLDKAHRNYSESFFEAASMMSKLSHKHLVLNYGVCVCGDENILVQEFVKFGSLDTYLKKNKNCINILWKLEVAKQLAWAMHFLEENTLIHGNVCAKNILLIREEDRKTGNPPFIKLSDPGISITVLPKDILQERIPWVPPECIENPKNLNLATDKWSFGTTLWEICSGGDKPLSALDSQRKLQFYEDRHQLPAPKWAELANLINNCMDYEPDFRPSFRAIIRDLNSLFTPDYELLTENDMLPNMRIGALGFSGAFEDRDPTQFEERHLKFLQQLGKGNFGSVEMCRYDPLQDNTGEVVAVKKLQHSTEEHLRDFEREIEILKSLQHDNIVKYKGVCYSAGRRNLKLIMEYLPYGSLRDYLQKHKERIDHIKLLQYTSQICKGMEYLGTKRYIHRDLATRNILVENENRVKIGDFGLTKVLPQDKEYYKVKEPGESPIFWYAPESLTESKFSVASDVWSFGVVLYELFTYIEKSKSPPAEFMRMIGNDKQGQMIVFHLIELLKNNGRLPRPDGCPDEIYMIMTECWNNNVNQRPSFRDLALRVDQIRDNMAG

Row | IC50 (Human Tyk2 kinase domain) [nM] | IC50 (JAK1) [nM] | IC50 (JAK2) [nM] | IC50 (JAK3) [nM] | Compound | activity in the in vitro assays [1]
1 | > 1000 | > 1000 | > 1000 | > 1000 | CN(C)C(=O)N1CC(CCF)(n2cc(-c3nc(-c4cnn(C)c4)cc4nccn34)cn2)C1 [Example 93, 3-(2-fluoroethyl)-N,N-dimethyl-3-(4-(7-(1-methyl-1H-pyrazol-4-yl)imidazo[1,2-c]pyrimidin-5-yl)-1H-pyrazol-1-yl)azetidine-1-carboxamide] | weakly active
2 | > 1000 | > 1000 | > 1000 | > 1000 | Cn1cc(-c2cc3nccn3c(-c3cnn(C4(CCF)CN(C(=O)C5CC5)C4)c3)n2)cn1 [Example 97, cyclopropyl(3-(2-fluoroethyl)-3-(4-(7-(1-methyl-1H-pyrazol-4-yl)imidazo[1,2-c]pyrimidin-5-yl)-1H-pyrazol-1-yl)azetidin-1-yl)methanone] | weakly active
3 | > 1000 | > 1000 | > 1000 | > 1000 | COCCC1(n2cc(-c3nc(-c4cnn(C)c4)cc4nccn34)cn2)CN(C(=O)N(C)C)C1 [Example 99, 3-(2-methoxyethyl)-N,N-dimethyl-3-(4-(7-(1-methyl-1H-pyrazol-4-yl)imidazo[1,2-c]pyrimidin-5-yl)-1H-pyrazol-1-yl)azetidine-1-carboxamide] | weakly active

Reference: patent publication US20140228349A1, “5,7-SUBSTITUTED-IMIDAZO[1,2-C]PYRIMIDINES” (Array BioPharma Inc., priority 2011, published 2014)
